Measured values published in US12459934B2, “Pesticidal compounds” (BASF SE, priority 2018, dated 2025).

Experiments:
Assay type in all cases: in vivo
[1] = tested on: yellow fever mosquito (Aedes aegypti); experiment: whole plant or invertebrate; conditions: 48 h, freshly hatched larvae in tap water, assessed after 2 days, read-out: mortality in comparison with untreated controls (larval mortality)
Protocol: For evaluating control of yellow fever mosquito (Aedes aegypti) the test unit consisted of 96-well-microtiter plates containing 200 μl of tap water per well and 5-15 freshly hatched A. aegypti larvae. The active compounds were formulated using a solution containing 75% (v/v) water and 25% (v/v) DMSO. Different concentrations of formulated compounds or mixtures were sprayed onto the insect diet at 2.5 μl, using a custom built micro atomizer, at two replications.
After application, microtiter plates were incubated at 28+1° C., 80+5% RH for 2 days. Larval mortality was then visually assessed.

[2] = tested on: Orchid Thrips (Dichromothrips corbetti); experiment: Orchid thrips, floral-immersion technique; conditions: dipped orchid petals, adult thrips, 72 hours after treatment, read-out: mortality in comparison with untreated controls
Protocol: Dichromothrips corbetti adults used for bioassay were obtained from a colony maintained continuously under laboratory conditions. For testing purposes, the test compound is diluted in a 1:1 mixture of acetone:water (vol:vol), plus Kinetic® HV at a rate of 0.01% v/v.
Thrips potency of each compound was evaluated by using a floral-immersion technique. All petals of individual, intact orchid flowers were dipped into treatment solution and allowed to dry in Petri dishes. Treated petals were placed into individual re-sealable plastic along with about 20 adult thrips. All test arenas were held under continuous light and a temperature of about 28° C. for duration of the assay. After 3 days, the numbers of live thrips were counted on each petal. The percent mortality was recorded 72 hours after treatment.

[3] = tested on: boll weevil (Anthonomus grandis); experiment: Boll weevil control, 96-well microtiter plate with insect diet and eggs; conditions: 120 h, sprayed onto insect diet, assessed after 5 days, read-out: mortality in comparison with untreated controls (egg and larval mortality)
Protocol: For evaluating control of boll weevil (Anthonomus grandis) the test unit consisted of 96-well-microtiter plates containing an insect diet and 5-10 A. grandis eggs.
The compounds were formulated using a solution containing 75% v/v water and 25% v/v DMSO. Different concentrations of formulated compounds were sprayed onto the insect diet at 5 μl, using a custom built micro atomizer, at two replications.
After application, microtiter plates were incubated at about 25±1° C. and about 75±5% relative humidity for 5 days. Egg and larval mortality was then visually assessed.

[4] = tested on: Diamond Back Moth (Plutella xylostella); experiment: Diamond back moth, cabbage leaf dip test; conditions: foliar, 3rd instar larvae, 72 hours after treatment, read-out: mortality in comparison with untreated controls
Protocol: The active compound is dissolved at the desired concentration in a mixture of 1:1 (vol:vol) distilled water:acetone. Surfactant (Alkamuls® EL 620) is added at a rate of 0.1% (vol/vol). The test solution is prepared at the day of use.
Leaves of cabbage were dipped in test solution and air-dried. Treated leaves were placed in petri dish enlined with moist filter paper and inoculated with ten 3rd instar larvae. Mortality was recorded 72 hours after treatment. Feeding damages were also recorded using a scale of 0-100%.

[5] = tested on: Western Flower Thrips (Frankliniella occidentalis); experiment: Western flower thrips on leaf discs of sprayed cotton plants; conditions: foliar, 48 h, 2 DAT (days after treatment), read-out: mortality in comparison with untreated controls
Protocol: The active compounds were formulated by a Tecan liquid handler in 100% cyclohexanone as a 10,000 ppm solution supplied in tubes. The 10,000 ppm solution was serially diluted in 100% cyclohexanone to make interim solutions. These served as stock solutions for which final dilutions were made by the Tecan in 50% acetone:50% water (v/v) into 10 or 20 ml glass vials. A nonionic surfactant (Kinetic®) was included in the solution at a volume of 0.01% (v/v). The vials were then inserted into an automated electrostatic sprayer equipped with an atomizing nozzle for application to plants/insects.
Small (˜2″ in height) cotton plants are sprayed with test compounds at concentrations ranging from 300 to 0.01 ppm in acetone/water through the automated VPS. After drying, cotton leaves are removed and circular leaf discs (−1 cm diameter) are punched from the treated surface and transferred to clean 20 mL scintillation vials. Ten Western flower thrips (FRANOC) are aspirated into each scintillation vial. The vials with the leaf discs and thrips are kept in an upright incubator at 25° C. and 50% relative humidity with a 14:10 light:dark photoperiod. Each treatment is replicated twice.
Thrips mortality is assessed at 2 DAT (days after treatment), counting all thrips both dead and alive. [The average absolute mortality is calculated for each treatment.]

[6] = tested on: Southern Armyworm (Spodoptera eridania), 2nd Instar Larvae; experiment: Southern armyworm 2nd instar larvae on sprayed lima bean plants; conditions: 96 h, 4 days after treatment, read-out: mortality in comparison with untreated controls
Protocol: (§1) The active compounds were formulated in cyclohexanone as a 10,000 ppm solution supplied in tubes. The tubes were inserted into an automated electrostatic sprayer equipped with an atomizing nozzle and they served as stock solutions for which lower dilutions were made in 50% acetone:50% water (v/v). A nonionic surfactant (Kinetic®) was included in the solution at a volume of 0.01% (v/v).
Lima bean plants (variety Sieva) were grown 2 plants to a pot and selected for treatment at the 1st true leaf stage. Test solutions were sprayed onto the foliage by an automated electrostatic plant sprayer equipped with an atomizing spray nozzle. The plants were dried in the sprayer fume hood and then removed from the sprayer. Each pot was placed into perforated plastic bags with a zip closure. About 10 to 11 armyworm larvae were placed into the bag and the bags zipped closed. Test plants were maintained in a growth room at about 25° C. and about 20-40% relative humidity for 4 days, avoiding direct exposure to fluorescent light (24 hour photoperiod) to prevent trapping of heat inside the bags. Mortality and reduced feeding were assessed 4 days after treatment, compared to untreated control plants.

[7] = tested on: tobacco budworm (Heliothis virescens); experiment: Tobacco budworm control, 96-well microtiter plate with insect diet and eggs; conditions: 120 h, sprayed onto insect diet, assessed after 5 days, read-out: mortality in comparison with untreated controls (egg and larval mortality)
Protocol: For evaluating control of tobacco budworm (Heliothis virescens) the test unit consisted of 96-well-microtiter plates containing an insect diet and 15-25 H. virescens eggs.
The compounds were formulated using a solution containing 75% v/v water and 25% v/v DMSO. Different concentrations of formulated compounds were sprayed onto the insect diet at 10 μl, using a custom built micro atomizer, at two replications.
After application, microtiter plates were incubated at about 28±1° C. and about 80±5% relative humidity for 5 days. Egg and larval mortality was then visually assessed.

[8] = tested on: Silverleaf Whitefly (Bemisia argentifolii) (Adults); experiment: Silverleaf whitefly adults on sprayed cotton plants; conditions: 72 h, 3 days after treatment, read-out: mortality in comparison with untreated controls
Text: as §1, with “non-ionic” for “nonionic”
Cotton plants at the cotyledon stage (one plant per pot) were sprayed by an automated electrostatic plant sprayer equipped with an atomizing spray nozzle. The plants were dried in the sprayer fume hood and then removed from the sprayer. Each pot was placed into a plastic cup and about 10 to 12 whitefly adults (approximately 3-5 days old) were introduced. The insects were collected using an aspirator and a nontoxic Tygon® tubing connected to a barrier pipette tip. The tip, containing the collected insects, was then gently inserted into the soil containing the treated plant, allowing insects to crawl out of the tip to reach the foliage for feeding. Cups were covered with a reusable screened lid. Test plants were maintained in a growth room at about 25° C. and about 20-40% relative humidity for 3 days, avoiding direct exposure to fluorescent light (24-hour photoperiod) to prevent trapping of heat inside the cup. Mortality was assessed 3 days after treatment, compared to untreated control plants.

CC(C)c1ccccc1NC(=S)N/N=C/c1ccc2c(C(=O)Nc3ccc(OC(F)(F)F)cc3)nccc2c1 [Compound C-1, 6-[(E)-[(2-isopropylphenyl)carbamothioylhydrazono]methyl]-N-[4-(trifluoromethoxy)phenyl]isoquinoline-1-carboxamide]
> 75%: mortality at 800 ppm [1] | mortality at 300 ppm [2] | mortality at 800 ppm [3] | mortality at 300 ppm [4] | mortality at 300 ppm [5] | mortality at 300 ppm [6] | mortality at 800 ppm [7]

CC(C)c1ccccc1N1C(=O)CS/C1=N\N=C\c1ccc2c(C(=O)Nc3ccc(OC(F)(F)F)cc3)nccc2c1 [Compound C-2, 6-[(E)-[(Z)-[3-(2-isopropylphenyl)-4-oxo-thiazolidin-2-ylidene]hydrazono]methyl]-N-[4-(trifluoromethoxy)phenyl]isoquinoline-1-carboxamide]
> 75%: mortality at 800 ppm [1] | mortality at 300 ppm [2] | mortality at 800 ppm [3] | mortality at 300 ppm [8] | mortality at 300 ppm [4] | mortality at 300 ppm [5] | mortality at 300 ppm [6] | mortality at 800 ppm [7]
